Measurements published in paper PMC2948407 (Journal of the American Chemical Society, 2010).

Molecular target: T1, HasAp (Pseudomonas aeruginosa, UniProt O69756, H32A)
T1 sequence (O69756 1-184 H32A): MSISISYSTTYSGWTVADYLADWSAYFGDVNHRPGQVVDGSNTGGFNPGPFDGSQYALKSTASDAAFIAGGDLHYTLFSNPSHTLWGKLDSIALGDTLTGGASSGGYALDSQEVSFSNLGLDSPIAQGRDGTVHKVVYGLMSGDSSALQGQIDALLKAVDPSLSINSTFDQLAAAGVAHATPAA
Test: UV-vis titration
Type: binding

c1c[nH]cn1 [imidazole] was tested. Which Kd did it give?
Its Kd is 4.7 mM.
